Experiments:
[1] = biological target: T1, horseradish peroxidase (HRP) (Armoracia rusticana, UniProt P00433); experiment: Screening of NIR dye library for HRP substrates (hydrogen peroxide-dependent loss of fluorescence); type: biochemical; conditions: for enzymatic oxidation by HRP, positive controls of the library screening: known HRP substrates, homovanillic acid 0.99 mM, HRP 0.10 U/mL, 10 min, Amplex Red 30 min, room temperature; for oxidation by HRP (loss of fluorescence) at different hydrogen peroxide concentrations: NIR dye 2.5 μM, HRP 105 mU/mL, phosphate buffer 50 mM pH 7.5; for oxidation by HRP (loss of fluorescence) at different hydrogen peroxide concentrations / hydrogen peroxide sensing profile (loss in relative fluorescence intensity): 10 min room temperature; for hydrogen peroxide sensing profile (loss in relative fluorescence intensity): different dye concentrations, HRP-containing buffer pH 7.5
T1 construct: purchased Thermo Fisher Scientific A22188
T1 sequence (P00433 31-338): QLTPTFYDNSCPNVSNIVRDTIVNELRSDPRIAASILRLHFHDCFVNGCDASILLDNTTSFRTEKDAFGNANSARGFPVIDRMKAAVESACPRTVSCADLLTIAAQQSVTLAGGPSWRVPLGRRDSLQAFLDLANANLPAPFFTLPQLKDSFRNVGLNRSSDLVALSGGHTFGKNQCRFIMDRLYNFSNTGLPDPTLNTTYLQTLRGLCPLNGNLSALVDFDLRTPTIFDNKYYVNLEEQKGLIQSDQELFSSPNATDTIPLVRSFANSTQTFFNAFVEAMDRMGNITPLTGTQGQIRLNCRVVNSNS
Procedure: FIGS. 2A-2C are related to screening of near-infrared (NIR) dye library for HRP substrates. NIR dye concentration: 2.5 μM; HRP concentration: 105 mU/mL; buffer composition: phosphate buffer 50 mM at pH 7.5; 10 min incubation time at room temperature. All results as means+SD (n=3).
FIG. 2E is a graph showing the relative fluorescence intensity of a homovanillic acid-containing solution in the presence of hydrogen peroxide and HRP, therefore evaluating hydrogen peroxide sensing with homovanillic acid (a known substrate of HRP) and HRP. HRP catalyzes the dimerization of homovanillic acid to a fluorescent product in the presence of hydrogen peroxide. HRP concentration: 0.10 U/mL; homovanillic acid: 0.99 mM; λex 312 nm; λem 430 nm; incubation time 10 min at room temperature. All results as mean±SD (n=3).
FIG. 2F is a graph showing the relative fluorescence intensity of an Amplex Red®-containing solution in the presence of hydrogen peroxide and HRP, therefore evaluating hydrogen peroxide sensing with Amplex Red® (a known substrate of HRP) and HRP. HRP catalyzes the oxidation of Amplex Red® to the fluorescent product resorufin in the presence of hydrogen peroxide. Excitation/emission wavelengths: λex 530 nm; λem 590 nm; incubation time 30 min at room temperature. Assay conducted in accordance to manufacturer's instructions. All results as mean±SD (n=3).
FIGS. 3B-3E are related to hydrogen peroxide sensing using HRP-mediated S7 oxidation. NIR dye concentration unless stated: 10 μM (FIG. 3C), 7.5 μM (FIG. 3D); HRP concentration: 105 mU/mL (FIG. 3B); buffer composition: phosphate buffer 50 mM at pH 7.5; 10 (FIGS. 3B, 3D) or 30 min (FIG. 3E) incubation time at room temperature. […] All results as means+SD (n=3).
(§1) NIR dyes were dissolved in water (sulfo-cyanine dyes, Lumiprobe, Hannover, Germany, and all investigated IRDyes except for IRDye 800RS, LI-COR Biosciences, Lincoln, NE) or dimethyl sulfoxide (Sigma Aldrich, St. Louis, MO; cyanine dyes, Lumiprobe, and IRDye 80016, LI-COR Biosciences). 10 μL of dye solution (final 2.5 μM) were added to 100 uL of HRP solution (final 105 mU/mL) and hydrogen peroxide standards (both from Amplex™ Red Hydrogen Peroxide/Peroxidase Assay Kit A22188, Thermo Fisher Scientific, Waltham, MA) in sodium chloride-containing phosphate buffer (Sigma Aldrich) 50 mM at pH 7.5 at 300 mOsmol/kg and protected from light. After 10 min at room temperature, the fluorescence intensity was determined by a plate reader (BioTek NEO2, BioTek, Winooski, VT) at the fluorescence excitation and emission wavelength provided by the manufacturer.
To determine the absorbance spectra of S7, 10 μL of dye solution (final 7.5 μM) were added to 100 μL of HRP solution (final 105 mU/mL) and hydrogen peroxide standards in isotonic phosphate buffer 50 mM at pH 7.5. After 15 min, the absorbance spectra were recorded by a plate reader (BioTek NEO2).

[2] = Fluorescence of dyes with hydrogen peroxide in HRP-free buffer; type: physicochemical; conditions: 400-fold molar excess of hydrogen peroxide
Procedure: as §1, with “([…]” for “(final 2.5 μM) were added to 100 uL of HRP solution (final 105 mU/mL) and hydrogen peroxide standards (both from Amplex™ Red Hydrogen”

[3] = Superoxide testing (SOTS-1 as superoxide radical source); type: physicochemical; conditions: 100-fold excess of superoxide radical (SOTS-1); 30 min room temperature; pH 7.5
Procedure: FIG. 3E is a graph showing the relative fluorescence intensity of several NIR dyes and the superoxide-sensitive dye DHE (positive control) at different concentrations of the superoxide radical source SOTS-1 (E).
Superoxide was generated in accordance with the literature. In brief, SOTS-1 (Cayman Chemicals, Ann Arbor, MI) was dissolved in dimethylformamide (Sigma Aldrich) and added to a near-infrared fluorescent dye-containing ([…]; DHE concentration 10 μM) isotonic phosphate buffer 50 mM at pH 7.5 ([…]) and protected from light. After 30 min at room temperature, the fluorescence intensity was determined by a plate reader (BioTek NEO2) at the fluorescence excitation and emission wavelength provided by the manufacturer.

hydrogen peroxide sensing profile (loss in relative fluorescence intensity) [1]	fluorescence properties upon exposure to hydrogen peroxide without HRP [2]	fluorescence emission in the presence of superoxide radical [3]	Compound	enzymatic oxidation by HRP, positive controls of the library screening [1]	oxidation by HRP (loss of fluorescence) at different hydrogen peroxide concentrations [1]
			CC(=O)N1c2ccc(O)cc2Oc2cc(O)ccc21 [Amplex Red®]	enzymatically oxidized in a hydrogen peroxide-dependent manner	
linear hydrogen peroxide sensing profile	preserved their fluorescence properties		CC1(C)C(/C=C/C=C/C=C/C=C2\N(CCCCS(=O)(=O)O)c3ccc4ccccc4c3C2(C)C)=[N+](CCCCS(=O)(=O)[O-])c2ccc3ccccc3c21 [ICG, indocyanine green]		oxidized by HRP in a hydrogen peroxide concentration-dependent manner
			COc1cc(CC(=O)O)ccc1O [homovanillic acid]	enzymatically oxidized in a hydrogen peroxide-dependent manner	
		preserved their fluorescence emission	CN1/C(=C/C=C/C=C/C2=[N+](CCCCCC(=O)O)c3ccc(S(=O)(=O)O)cc3C2(C)C)C(C)(C)c2cc(S(=O)(=O)O)ccc21 [sulfo-cyanine 5]		
followed a sigmoid curve	preserved their fluorescence properties	preserved their fluorescence emission	sulfo-cyanine 7 [S7]		oxidized by HRP in a hydrogen peroxide concentration-dependent manner
